Measurements taken from patent publication EP0195316A1, “Quinolonecarboxylic acid derivatives” (KYORIN PHARMACEUTICAL CO., LTD., priority 1985, dated 1986).
Values after ≈ are worked out from the molar mass of the structure shown. Read-outs that look alike come from different tables or passages of the source.

What was measured:
[1] = system: Escherichia coli NIHJ JC-2; assay: MIC, in vitro antibacterial activity (standard strains); format: cell-based; settings: NIHJJC2
[2] = system: Proteus vulgaris IFO 3167; assay: as above; format: cell-based; settings: Proteus vulgaris, IFO3167
[3] = system: K. pneumoniae 1-220S; assay: as above; format: cell-based; settings: Klebsiella pneumoniae, 1220S
[4] = system: Shigella sonnei IID 969; assay: as above; format: cell-based; settings: IID969; Shigella sonnei IID 969, 10^6 cells/ml, Gram -
Experimental: (§1) Minimal inhibitory concentrations (MICs) were determined in accordance with the method recommended by Japan Society of Chemotherapy.

[5] = system: Pst. microns UPI 5464-1; assay: as above; format: cell-based; settings: Pst. microns UPI 5464-1, 10^6 cells/ml, Gram +
[6] = system: E. coli ML 4707; assay: In vivo antibacterial activity against systemic infections in mice; settings: Escherichia coli
Experimental: (§2) The infections were produced by intraperitoneal injection of suspension of the bacterial cells. The compounds were administered orally at an hour after the injection. Five male ICR mice were used for each dosage. […] The efficacy of the present compound are shown in Table 4 in comparison with those of the reference compounds.

[7] = system: P. aeruginosa IID 1210; assay: as above; settings: Pseudomonas aeruginosa
Experimental: as §2

[8] = system: S. aureus Smith; assay: as above; settings: Staphylococcus aureus
Experimental: as §2

[9] = system: S. pneumoniae S-4288; assay: as above; settings: Streptococcus pneumoniae
Experimental: as §2

[10] = system: Bacteroides fragilis 2; assay: Experimental local infection with anaerobic bacteria in granuloma pouches in rats; format: in vivo; settings: pouch exudate, Mean ± S.D. (n=3)
Experimental: Under ether anesthesia, male Wistar rats (7 weeks old) were injected subcutaneously on the back with 20 ml of germ-free air (sterilized by membrane filtration, 0.45 µm pore size) by means of a syringe. Continuously, an inflammatory reaction was induced by injecting one ml of sterile croton oil solution (1 % in olive oil) into the formed air pouch. After 2 days, the air was removed. On the eighth day, 0.5 ml of Bacteroides fragilis 2 culture (10^6 CFU/ml) were injected into bore granuloma pouches. Each compound was administered orally or subcutaneously at 2 hours after infection. […] During experiment, intake of food and water was free. It was known that the activity of the existing quinolonecarboxylic acid compounds against obligate anaerobic bacteria was very weak. […] This property is also one of excellent characters of the present comound.

[11] = system: nalidixic acid-resistant Salmonella typhimurium TA98 strain (nal^r); assay: Mutagenicity, reverse mutation assay; settings: 0.5 µg/plate, S9-mix +, positive control
Source text: As for antibacterial agents, assessment of mutagenicity using bacteria is somewhat difficult because of their activity on the test bacteria.

[12] = system: MR-S. aureus; assay: MIC, in vitro antibacterial activity (clinical isolates); format: cell-based; settings: Staphylococcus aureus, No. of strains 46
[13] = system: S. epidermidis; assay: as above; format: cell-based; settings: Staphylococcus epidermidis, No. of strains 10
[14] = system: S. pyogenes; assay: as above; format: cell-based; settings: Streptococcus pyogenes
[15] = system: S. pneumoniae; assay: as above; format: cell-based; settings: Streptococcus pneumoniae
[16] = system: E. faecalis; assay: as above; format: cell-based; settings: Enterococcus faecalis, No. of strains 5
[17] = system: N. gonorrhoeae; assay: as above; format: cell-based; settings: Neisseria gonorrhoeae, No. of strains 16
[18] = system: N. meningitidis; assay: as above; format: cell-based; settings: Neisseria meningitidis, No. of strains 3
[19] = system: B. catarrhalis; assay: as above; format: cell-based; settings: Moraxella catarrhalis
[20] = system: H. influenzae; assay: as above; format: cell-based; settings: Haemophilus influenzae, No. of strains 26
[21] = system: E. coli; assay: as above; format: cell-based; settings: Escherichia coli, No. of strains 25
Experimental: as §1

[22] = system: P. pneumoniae; assay: as above; format: cell-based; settings: No. of strains 25
Experimental: as §1

[23] = system: S. aureus; assay: as above; format: cell-based; settings: Staphylococcus aureus, No. of strains 21
Experimental: as §1

[24] = system: E. cloacae; assay: as above; format: cell-based; settings: Enterobacter cloacae
[25] = system: S. marcescens; assay: as above; format: cell-based; settings: Serratia marcescens, No. of strains 20
[26] = system: P. mirabilis; assay: as above; format: cell-based; settings: Proteus mirabilis, No. of strains 10
[27] = system: P. vulgaris; assay: as above; format: cell-based; settings: Proteus vulgaris, No. of strains 6
[28] = system: M. morganii; assay: as above; format: cell-based; settings: Morganella morganii, No. of strains 8
[29] = system: C. freundii; assay: as above; format: cell-based; settings: Citrobacter freundii, No. of strains 9
[30] = system: P. aeruginosa; assay: as above; format: cell-based; settings: Pseudomonas aeruginosa
[31] = system: P. maltophilia; assay: as above; format: cell-based; settings: Stenotrophomonas maltophilia, No. of strains 9
[32] = system: Acinetobacter sp.; assay: as above; format: cell-based
[33] = system: Alcaligenes sp.; assay: as above; format: cell-based; settings: No. of strains 9
[34] = system: Campylobacter jejuni; assay: as above; format: cell-based; settings: No. of strains 20
[35] = system: Bacteroides sp.; assay: as above; format: cell-based; settings: No. of strains 17
[36] = system: Streptococcus pyogenes (S-8); assay: MIC, in vitro antibacterial activity (standard strains); format: cell-based; settings: Streptococcus pyogenes
[37] = system: S. pneumoniae IID 552; assay: as above; format: cell-based; settings: Streptococcus pneumoniae, IID552
[38] = system: Klebsiella pneumoniae KY(GN)6445; assay: as above; format: cell-based; settings: Klebsiella pneumoniae
[39] = system: Alcaligenes faecalis 0104002; assay: as above; format: cell-based; settings: Alcaligenes faecalis, 0104002
[40] = system: B. thetaiotaomicron (0661); assay: as above; format: cell-based; settings: Bacteroides thetaiotaomicron
[41] = system: F. varium KYA 8501; assay: as above; format: cell-based; settings: Fusobacterium varium, KYA8501
[42] = system: C. perfringens KYA 13123; assay: microbe, parasite or virus in culture; format: cell-based; settings: Clostridium perfringens, KYA13123
[43] = ML4707, E. coli ML 4707 systemic infection (i.p.), male ICR mice, oral administration an hour after infection, read-out: ED50
[44] = IID1210, P. aeruginosa IID 1210 systemic infection (i.p.), male ICR mice, oral administration an hour after infection, read-out: ED50
[45] = S4288, S. pneumoniae S-4288 systemic infection (i.p.), male ICR mice, oral administration an hour after infection, read-out: ED50

## O=C(O)c1cn(C2CC2)c2cc(N3CCNCC3)c(F)cc2c1=O [CFLX, Ciprofloxacin]
[1]; Escherichia coli NIHJ JC-2, 10^6 cells/ml, Gram -, read-out: MIC
  MIC: ≤ 0.006 µg/mL
[2]
  MIC: ≤ 0.006 µg/mL
[3]
  MIC: 0.05 µg/mL (≈ 0.151 µM)
[4]
  MIC: ≤ 0.006 µg/mL
[5]
  MIC: 0.2 µg/mL
[6]; ML4707, po
  ED50: 1.5 mg/kg
[7]; IID1210, po
  ED50: 4.5 mg/kg
[8]; po
  ED50: 31 mg/kg
[9]; S4288, po
  ED50: > 100 mg/kg

## CO[C@@]1(NC(=O)Cc2cccs2)C(=O)N2C(C(=O)O)=C(COC(N)=O)CS[C@@H]21 [CFX, cefoxitin]
[10]; 50 mg/kg, s.c., 6 hr
  Viable cells count (log) / ml: 3.9 ± 0.25 (log) / ml
[10]; 50 mg/kg, s.c., 24 hr
  Viable cells count (log) / ml: 6.3 ± 0.31 (log) / ml

## CCC[C@@H]1C[C@@H](C(=O)N[C@@H]([C@H]2O[C@H](SC)[C@H](O)[C@@H](O)[C@H]2O)[C@H](C)Cl)N(C)C1 [CLDM, clindamycin]
[10]; 25 mg/kg, s.c., 6 hr
  Viable cells count (log) / ml: 4.6 ± 0.058 (log) / ml
[10]; 25 mg/kg, s.c., 24 hr
  Viable cells count (log) / ml: 6.4 ± 0.38 (log) / ml

## Nc1ccc2cc3ccccc3cc2c1 [Example 2AA, 2-Aminoanthracene]
[11]
  His^+ revertants per plate: 277

## Cc1ncc([N+](=O)[O-])n1CCO [MND, metronidazole]
[10]; 50 mg/kg, p.o., 6 hr
  Viable cells count (log) / ml: 5.2 ± 0.10 (log) / ml
[10]; 50 mg/kg, p.o., 24 hr
  Viable cells count (log) / ml: 5.7 ± 0.60 (log) / ml

## CCn1cc(C(=O)O)c(=O)c2cc(F)c(N3CCNCC3)cc21 [NFLX, Norfloxacin]
[12]
  MIC: 25 µg/mL (≈ 78.3 µM)
[13]
  MIC: 0.78 µg/mL (≈ 2.44 µM)
[14]
  MIC: 1.56 µg/mL (≈ 4.89 µM)
[15]
  MIC: 12.5 µg/mL (≈ 39.1 µM)
[16]
  MIC: 6.25 µg/mL (≈ 19.6 µM)
[17]
  MIC: 0.1 µg/mL (≈ 0.313 µM)
[18]
  MIC: 0.05 µg/mL (≈ 0.157 µM)
[19]
  MIC: 1.56 µg/mL (≈ 4.89 µM)
[20]
  MIC: 0.2 µg/mL (≈ 0.626 µM)
[21]
  MIC: 0.1 µg/mL (≈ 0.313 µM)
[22]
  MIC: 0.78 µg/mL (≈ 2.44 µM)
[23]
  MIC: 1.56 µg/mL (≈ 4.89 µM)
[24]
  MIC: 0.1 µg/mL (≈ 0.313 µM)
[25]
  MIC: 0.1 µg/mL (≈ 0.313 µM)
[26]
  MIC: 0.1 µg/mL (≈ 0.313 µM)
[27]
  MIC: 0.05 µg/mL (≈ 0.157 µM)
[28]
  MIC: 0.05 µg/mL (≈ 0.157 µM)
[29]
  MIC: 0.39 µg/mL (≈ 1.22 µM)
[30]
  MIC: 1.56 µg/mL (≈ 4.89 µM)
[31]
  MIC: 25 µg/mL (≈ 78.3 µM)
[32]; Acinetobacter
  MIC: 12.5 µg/mL (≈ 39.1 µM)
[33]
  MIC: 100 µg/mL (≈ 313 µM)
[34]
  MIC: 0.78 µg/mL (≈ 2.44 µM)
[35]
  MIC: 50 µg/mL (≈ 157 µM)
[6]; [43]
  ED50: 8.9 mg/kg
[7]; [44]
  ED50: 18.9 mg/kg
[9]; [45]
  ED50: > 100 mg/kg

## CC1COc2c(N3CCN(C)CC3)c(F)cc3c(=O)c(C(=O)O)cn1c23 (stereo not drawn) [OFLX, Ofloxacin]
[12]
  MIC: 1.56 µg/mL (≈ 4.32 µM)
[13]
  MIC: 0.39 µg/mL (≈ 1.08 µM)
[14]; clinical isolates S. pyogenes, No. of strains 6, read-out: MIC
  MIC: 1.56 µg/mL (≈ 4.32 µM)
[15]; clinical isolates S. pneumoniae, No. of strains 6, read-out: MIC
  MIC: 3.13 µg/mL (≈ 8.66 µM)
[16]
  MIC: 3.13 µg/mL (≈ 8.66 µM)
[17]
  MIC: 0.05 µg/mL (≈ 0.138 µM)
[18]
  MIC: 0.025 µg/mL (≈ 0.0692 µM)
[19]; clinical isolates B. catarrhalis, No. of strains 21, read-out: MIC
  MIC: 0.2 µg/mL (≈ 0.553 µM)
[20]
  MIC: 0.1 µg/mL (≈ 0.277 µM)
[21]
  MIC: 0.1 µg/mL (≈ 0.277 µM)
[22]
  MIC: 0.78 µg/mL (≈ 2.16 µM)
[23]
  MIC: 0.39 µg/mL (≈ 1.08 µM)
[24]
  MIC: 0.1 µg/mL (≈ 0.277 µM)
[25]
  MIC: 0.2 µg/mL (≈ 0.553 µM)
[26]
  MIC: 0.2 µg/mL (≈ 0.553 µM)
[27]
  MIC: 0.1 µg/mL (≈ 0.277 µM)
[28]
  MIC: 0.1 µg/mL (≈ 0.277 µM)
[29]
  MIC: 0.39 µg/mL (≈ 1.08 µM)
[30]; clinical isolates P. aeruginosa, No. of strains 27, read-out: MIC
  MIC: 3.13 µg/mL (≈ 8.66 µM)
[31]
  MIC: 6.25 µg/mL (≈ 17.3 µM)
[32]; clinical isolates Acinetobacter sp., No. of strains 13, read-out: MIC
  MIC: 3.13 µg/mL (≈ 8.66 µM)
[33]
  MIC: 6.25 µg/mL (≈ 17.3 µM)
[34]
  MIC: 0.39 µg/mL (≈ 1.08 µM)
[35]
  MIC: 3.13 µg/mL (≈ 8.66 µM)
[6]; [43]
  ED50: 2.1 mg/kg
[7]; [44]
  ED50: 12.1 mg/kg
[8]; S. aureus Smith systemic infection (i.p.), male ICR mice, oral administration an hour after infection, read-out: ED50
  ED50: 17 mg/kg
[9]; [45]
  ED50: > 100 mg/kg

## O=C(O)c1cn(C2CC2)c2c(F)c(N3CCNCC3)c(F)cc2c1=O [Ref.1, 1-Cyclopropyl-6,8-difluoro-1,4-dihydro-4-oxo-7-(1-piperazinyl)-3-quinoline-carboxylic acid]
[36]
  MIC: 0.39 µg/mL (≈ 1.12 µM)
[37]
  MIC: 0.78 µg/mL (≈ 2.23 µM)
[1]; Escherichia coli
  MIC: ≤ 0.006 µg/mL
[38]
  MIC: 0.0125 µg/mL (≈ 0.0358 µM)
[3]
  MIC: 0.05 µg/mL (≈ 0.143 µM)
[4]
  MIC: ≤ 0.006 µg/mL
[39]
  MIC: 0.025 µg/mL (≈ 0.0716 µM)
[40]
  MIC: 3.13 µg/mL (≈ 8.96 µM)
[41]
  MIC: 3.13 µg/mL (≈ 8.96 µM)
[42]
  MIC: 0.39 µg/mL (≈ 1.12 µM)
